Reference: patent US10918713B2, “Epitopes from allergen proteins and methods and uses for immune response modulation” (LA JOLLA INSTITUTE FOR ALLERGY AND IMMUNOLOGY, priority 2012, dated 2021)
Several values for one entry are separate records, joined by “and”; a condition that tells them apart may be missing. Identical values can stand only once.

Columns and labels:
Assay type in all cases: cell-based, human
[1] = test system: PBMC from allergic donors; experiment: IFN-γ ELISPOT with extract-stimulated short-term lines; settings: positive donor/peptide response; each table line is one donor
Procedure: (§1) Spots were counted by computer-assisted image analysis (Zeiss, KS-ELISPOT reader, Munich, Germany).
(§2) Each assay was performed in triplicate. The level of statistical significance was determined with a Student's t-test using the mean of triplicate values of the response against relevant pools or individual peptides versus the response against the DMSO control.

[2] = test system: PBMC from allergic donors; experiment: Dual ELISPOT, total IL-5 and IFN-γ response (SFC); settings: sum of IFNg and IL-5
Procedure: as §1, §2

[3] = test system: PBMC from allergic donors; experiment: IL-5 ELISPOT with extract-stimulated short-term lines; settings: positive donor/peptide response
Procedure: as §1, §2

Row | Compound | Response (SFC/10^6) IFNg [1] [SFC/10^6] | Response (SFC/10^6) Total ([2]; each table line is one donor) | Response (SFC/10^6) IL-5 ([3]; each table line is one donor) | Response (SFC/10^6) IL-5 ([3]; one donor per table line) | Response (SFC/10^6) Total ([2]; one donor per table line)
1 | 3324.1151 (NEMSWIESIPFVHLG) | 1933 | 1933 SFC/10^6 | – | – | –
2 | 3324.1152 (FPHRKGVLFNIQYVN) | 100 | 100 SFC/10^6 | – | – | –
3 | 3324.1159 (PENFAVVDLNQMRAV) | 75 | 75 SFC/10^6 | – | – | –
4 | 3324.1640 (VTAFGFDLVRGTKTL) | – | 73 SFC/10^6 | 73 SFC/10^6 | – | –
5 | CC[C@H](C)[C@H](NC(=O)[C@H](Cc1ccc(O)cc1)NC(=O)[C@H](CC(C)C)NC(=O)[C@@H]1CCCN1C(=O)[C@H](CCSC)NC(=O)[C@H](CC(N)=O)NC(=O)[C@H](CC(C)C)NC(=O)[C@H](CCCCN)NC(=O)[C@@H](NC(=O)[C@H](CC(N)=O)NC(=O)[C@H](CC(C)C)NC(=O)[C@@H](N)CC(N)=O)[C@@H](C)CC)C(=O)N[C@@H](C)C(=O)NCC(=O)N[C@@H](CC(N)=O)C(=O)O [3324.0523] | – | – | – | 1708 SFC/10^6 | 1708 SFC/10^6
6 | CC[C@H](C)[C@H](NC(=O)[C@H](CC(N)=O)NC(=O)[C@H](CCSC)NC(=O)[C@@H](N)CC(N)=O)C(=O)N[C@@H](CCCCN)C(=O)N[C@@H](CC(C)C)C(=O)N[C@@H](CCCCN)C(=O)N[C@@H](CCSC)C(=O)N1CCC[C@H]1C(=O)N[C@@H](CC(C)C)C(=O)N[C@@H](Cc1ccc(O)cc1)C(=O)N[C@H](C(=O)N[C@@H](C)C(=O)NCC(=O)N[C@@H](Cc1c[nH]cn1)C(=O)O)C(C)C [3324.0624] | – | – | – | 3147 SFC/10^6 | 3147 SFC/10^6
7 | CC[C@H](C)[C@H](NC(=O)[C@H](CO)NC(=O)[C@H](CC(C)C)NC(=O)[C@H](C)NC(=O)[C@H](CC(C)C)NC(=O)[C@H](CC(N)=O)NC(=O)[C@H](CCCCN)NC(=O)[C@H](CCC(=O)O)NC(=O)[C@H](CC(=O)O)NC(=O)[C@H](CO)NC(=O)CN)C(=O)N[C@@H](CCCCN)C(=O)N[C@@H](Cc1ccc(O)cc1)C(=O)N[C@@H](CC(N)=O)C(=O)N[C@@H](CCCCN)C(=O)O [3324.0657] | – | – | – | 1000 SFC/10^6 and 693 SFC/10^6 | 1000 SFC/10^6 and 693 SFC/10^6
8 | CC[C@H](C)[C@H](NC(=O)[C@H](CO)NC(=O)[C@H](CC(C)C)NC(=O)[C@H](C)NC(=O)[C@H](CC(C)C)NC(=O)[C@@H](N)CC(N)=O)C(=O)N[C@@H](CCCCN)C(=O)N[C@@H](Cc1ccc(O)cc1)C(=O)N[C@@H](CC(N)=O)C(=O)N[C@@H](CCCCN)C(=O)N[C@@H](CCC(=O)O)C(=O)NCC(=O)N[C@@H](CC(=O)O)C(=O)N[C@@H](CO)C(=O)N[C@@H](CCSC)C(=O)O [3324.0658] | – | – | – | 917 SFC/10^6 and 853 SFC/10^6 | 917 SFC/10^6 and 853 SFC/10^6
9 | CC[C@H](C)[C@H](NC(=O)[C@H](Cc1c[nH]cn1)NC(=O)[C@H](Cc1ccc(O)cc1)NC(=O)[C@H](C)NC(=O)[C@@H](NC(=O)[C@H](Cc1ccccc1)NC(=O)[C@H](C)NC(=O)[C@H](CC(=O)O)NC(=O)[C@@H](N)Cc1ccccc1)C(C)C)C(=O)NCC(=O)N[C@@H](C)C(=O)N[C@@H](CCCNC(=N)N)C(=O)N[C@H](C(=O)N[C@H](C(=O)N[C@@H](CO)C(=O)O)C(C)C)[C@@H](C)CC [3324.0971] | – | – | – | 187 SFC/10^6 | 187 SFC/10^6
10 | CC[C@H](C)[C@H](NC(=O)[C@H](C)NC(=O)[C@@H](NC(=O)[C@H](Cc1ccccc1)NC(=O)[C@H](C)NC(=O)[C@H](CCCNC(=N)N)NC(=O)[C@H](CC(N)=O)NC(=O)CNC(=O)[C@H](CCCNC(=N)N)NC(=O)[C@@H](N)CO)[C@@H](C)CC)C(=O)N[C@@H](CC(N)=O)C(=O)N[C@@H](CC(C)C)C(=O)N[C@@H](CCC(N)=O)C(=O)N[C@@H](CCCCN)C(=O)N[C@@H](CC(N)=O)C(=O)O [3324.0974] | – | – | – | 940 SFC/10^6 | 940 SFC/10^6
11 | CC[C@H](C)[C@H](NC(=O)[C@H](Cc1c[nH]cn1)NC(=O)[C@H](Cc1ccc(O)cc1)NC(=O)[C@H](C)NC(=O)[C@@H](NC(=O)[C@H](Cc1ccccc1)NC(=O)[C@H](C)NC(=O)[C@H](CC(=O)O)NC(=O)[C@H](Cc1ccccc1)NC(=O)[C@H](CCC(=O)O)NC(=O)[C@H](CC(=O)O)NC(=O)[C@H](Cc1c[nH]cn1)NC(=O)CNC(=O)[C@@H](NC(=O)[C@@H](N)Cc1ccc(O)cc1)C(C)C)C(C)C)C(=O)O [3324.0975] | – | – | – | 973 SFC/10^6 | 973 SFC/10^6
12 | CC[C@H](C)[C@H](N)C(=O)N[C@@H](CCC(=O)O)C(=O)N[C@@H](Cc1ccccc1)C(=O)N[C@@H](CCCNC(=N)N)C(=O)N[C@@H](Cc1ccccc1)C(=O)N[C@@H](Cc1ccc(O)cc1)C(=O)N[C@@H](CCCCN)C(=O)N[C@@H](CCC(=O)O)C(=O)N[C@H](C(=O)N[C@H](C(=O)N[C@@H](CC(N)=O)C(=O)N[C@H](C(=O)N[C@@H](Cc1ccccc1)C(=O)N[C@@H](CCCNC(=N)N)C(=O)NCC(=O)O)C(C)C)[C@@H](C)O)[C@@H](C)CC [3324.0976] | – | – | – | 153 SFC/10^6 and 610 SFC/10^6 | 153 SFC/10^6 and 610 SFC/10^6
13 | CSCC[C@H](NC(=O)[C@H](Cc1ccccc1)NC(=O)[C@H](C)N)C(=O)N[C@@H](CC(C)C)C(=O)N[C@@H](C)C(=O)N[C@@H](Cc1c[nH]c2ccccc12)C(=O)N[C@@H](CC(N)=O)C(=O)N[C@@H](Cc1ccc(O)cc1)C(=O)NCC(=O)N[C@H](C(=O)N1CCC[C@H]1C(=O)N[C@@H](CCCNC(=N)N)C(=O)N[C@H](C(=O)N[C@@H](CCSC)C(=O)N[C@@H](CO)C(=O)O)C(C)C)C(C)C [3324.0977] | – | – | – | 1413 SFC/10^6 and 157 SFC/10^6 | 1413 SFC/10^6 and 157 SFC/10^6
14 | CC[C@H](C)[C@H](NC(=O)[C@H](C)NC(=O)[C@@H](NC(=O)[C@H](Cc1ccccc1)NC(=O)[C@H](C)NC(=O)[C@H](CCCNC(=N)N)NC(=O)[C@H](CC(N)=O)NC(=O)CNC(=O)[C@H](CCCNC(=N)N)NC(=O)[C@H](CO)NC(=O)[C@H](Cc1ccccc1)NC(=O)[C@H](C)NC(=O)[C@@H](NC(=O)[C@H](CCC(N)=O)NC(=O)[C@@H](N)Cc1ccc(O)cc1)[C@@H](C)CC)[C@@H](C)CC)C(=O)O [3324.0980] | – | – | – | 177 SFC/10^6 and 380 SFC/10^6 | 177 SFC/10^6 and 380 SFC/10^6
15 | CC[C@H](C)[C@H](N)C(=O)N[C@H](C(=O)N[C@@H](CC(C)C)C(=O)N[C@@H](CC(N)=O)C(=O)N[C@@H](Cc1c[nH]cn1)C(=O)N[C@@H](CCSC)C(=O)N[C@H](C(=O)NCC(=O)N[C@@H](C)C(=O)N[C@@H](CCC(N)=O)C(=O)N[C@@H](CO)C(=O)NCC(=O)N[C@@H](CCCCN)C(=O)NCC(=O)N[C@H](C(=O)O)[C@@H](C)O)[C@@H](C)O)C(C)C [3324.0987] | – | – | – | 507 SFC/10^6 | 507 SFC/10^6
16 | CC[C@H](C)[C@H](N)C(=O)N[C@@H](CCCCN)C(=O)N[C@@H](CO)C(=O)N[C@@H](CC(=O)O)C(=O)N[C@@H](CCCCN)C(=O)N1CCC[C@H]1C(=O)N[C@@H](CC(C)C)C(=O)N[C@@H](CCCCN)C(=O)NCC(=O)N1CCC[C@H]1C(=O)N[C@@H](Cc1ccccc1)C(=O)N[C@@H](CC(N)=O)C(=O)N[C@@H](Cc1ccccc1)C(=O)N[C@@H](CCCNC(=N)N)C(=O)N[C@@H](Cc1ccccc1)C(=O)O [3324.1140] | – | 317 SFC/10^6 | 317 SFC/10^6 | – | –
17 | CC[C@H](C)[C@H](NC(=O)[C@H](Cc1ccccc1)NC(=O)[C@H](CCCCN)NC(=O)[C@H](Cc1ccc(O)cc1)NC(=O)[C@H](CO)NC(=O)[C@@H](N)CC(=O)O)C(=O)N1CCC[C@H]1C(=O)N[C@H](C(=O)N[C@@H](CC(C)C)C(=O)N[C@H](C(=O)N[C@@H](C)C(=O)N[C@@H](C)C(=O)N[C@H](C(=O)N[C@@H](CCCCN)C(=O)N[C@@H](CCC(N)=O)C(=O)O)C(C)C)C(C)C)[C@@H](C)O [3324.1165] | – | 382 SFC/10^6 and 78 SFC/10^6 | 382 SFC/10^6 and 78 SFC/10^6 | – | –
